Assay results taken from PMC7508416 (Chemical research in toxicology, 2020).
Where two headings read alike, the source gives them in different places. Marks after values point to notes of the source that are not given here.

Legend:
[1] = gavage of a technical mixture containing 35% 2IPPDPP; cited from earlier work
[2] = set-up: species or system human; settings: pooled urine of children aged 3-6; tentative, exact mass match
[3] = for % Depletion: after 60 min (Eq. 1); for Percentage of Initial Parent Administration (Mean ± Std Dev): Total: parents plus quantified metabolites; for Initial parent mass unaccounted for after quantifying suspected metabolites: metabolites with authentic standards available
[4] = for Depletion rate, slope, first-order kinetics / Depletion rate, slope, zero-order kinetics: linear regression
[5] = cited from earlier work
[6] = cited from earlier work; remark: listed apart in the source
[7] = cited from earlier work; remark: listed apart in the source
[8] = 2 μM; herring gull liver microsomes; cited from earlier work
[9] = polar bear liver microsomes; cited from earlier work
[10] = human liver microsomes; cited from earlier work
[11] = 1 μM, s9 & sulfatase & glucuronidase
[12] = 10 μM, s9 & sulfatase & glucuronidase

Compound | Percentage of Initial Parent Administration (Mean ± Std Dev): parent compound ([3]; 1 μM, Abiotic Control) | % Depletion ([3]; 1 μM, Abiotic Control) | Percentage of Initial Parent Administration (Mean ± Std Dev): parent compound ([3]; 1 μM, Heat-inactivated s9) | % Depletion ([3]; 1 μM, Heat-inactivated s9) | Percentage of Initial Parent Administration (Mean ± Std Dev): parent compound ([3]; 1 μM, s9) | Percentage of Initial Parent Administration (Mean ± Std Dev): parent compound ([3]; 1 μM, s9 & glucuronidase) | % Depletion ([3]; 1 μM, s9 & glucuronidase) | Percentage of Initial Parent Administration (Mean ± Std Dev): parent compound ([3]; 1 μM, s9 & sulfatase) | % Depletion ([3]; 1 μM, s9 & sulfatase) | % Depletion ([3]; 1 μM, s9) | Percentage of Initial Parent Administration (Mean ± Std Dev): parent compound ([3]; 1 μM, unprocessed spike) | Percentage of Initial Parent Administration (Mean ± Std Dev): Total ([3]; 1 μM, unprocessed spike) | Percentage of Initial Parent Administration (Mean ± Std Dev): parent compound ([3]; 10 μM, Abiotic Control) | % Depletion ([3]; 10 μM, Abiotic Control) | Percentage of Initial Parent Administration (Mean ± Std Dev): parent compound ([3]; 10 μM, Heat-inactivated s9) | % Depletion ([3]; 10 μM, Heat-inactivated s9) | Percentage of Initial Parent Administration (Mean ± Std Dev): parent compound ([3]; 10 μM, s9) | Percentage of Initial Parent Administration (Mean ± Std Dev): parent compound ([3]; 10 μM, s9 & glucuronidase) | % Depletion ([3]; 10 μM, s9 & glucuronidase) | % Depletion ([3]; 10 μM, s9 & sulfatase) | also measured
2-phenyl-4H,−4,4-dimethyl-1,1,3,2 -benzodioxapho-sphoran-2-oxide | – | – | – | – | – | – | – | – | – | – | – | – | – | – | – | – | – | – | – | – | Detection in rabbit bile [1]: detected; Detection in human urine samples (number of samples out of 9) [2]: 1
CC(C)c1ccccc1OP(=O)(Oc1ccccc1)Oc1ccccc1 [2IPPDPP, 2-isopropylphenyl diphenyl phosphate] | 105 ± 20% | 0% | 101 ± 8% | 0% | 56 ± 10% | 65 ± 3% | 35% | 64 ± 6% | 36% | 44% | 100 ± 13% | 100 ± 13% | 103 ± 10% | 0% | 103 ± 11% | 0% | 77 ± 5% | 82 ± 3% | 18% | 20% | Percentage of Initial Parent Administration (Mean ± Std Dev): parent compound [3, 11]: 67 ± 4%; % Depletion [3, 11]: 33%; Percentage of Initial Parent Administration (Mean ± Std Dev): parent compound [3, 12]: 84 ± 4%; % Depletion [3, 12]: 16%; % Depletion ([3]; 10 μM, s9): 23%; Percentage of Initial Parent Administration (Mean ± Std Dev): parent compound ([3]; 10 μM, unprocessed spike): 100 ± 9%; Initial parent mass unaccounted for after quantifying suspected metabolites [3]: approximately 20%; Depletion rate, slope, first-order kinetics ([4]; 1 μM dose): −0.010 ln[nmol]/min/mg protein; Depletion rate, slope, zero-order kinetics ([4]; 1 μM dose): −0.013 ^* nmol/min/mg protein; Depletion rate, slope, first-order kinetics ([4]; 10 μM dose): −0.0048 ln[nmol]/min/mg protein; Depletion rate, slope, zero-order kinetics ([4]; 10 μM dose): −0.092 nmol/min/mg protein
CC(C)c1ccc(OP(=O)(Oc2ccccc2)Oc2ccccc2)cc1 [4IPPDPP, 4-isopropylphenyl diphenyl phosphate] | 108 ± 23% | 0% | 82 ± 5% | 18% | 27 ± 4% | 27 ± 1% | 73% | 29 ± 3% | 71% | 73% | 100 ± 2% | 100 ± 13% | 94 ± 6% | 6% | 97 ± 10% | 3% | 55 ± 3% | 57 ± 2% | 43% | 46% | Percentage of Initial Parent Administration (Mean ± Std Dev): parent compound [3, 11]: 32 ± 3%; % Depletion [3, 11]: 68%; Percentage of Initial Parent Administration (Mean ± Std Dev): parent compound ([3]; 10 μM, s9 & sulfatase): 54 ± 1%; Percentage of Initial Parent Administration (Mean ± Std Dev): parent compound [3, 12]: 55 ± 4%; % Depletion [3, 12]: 45%; % Depletion ([3]; 10 μM, s9): 45%; Percentage of Initial Parent Administration (Mean ± Std Dev): parent compound ([3]; 10 μM, unprocessed spike): 100 ± 3%; Initial parent mass unaccounted for after quantifying suspected metabolites [3]: approximately 20%; Depletion rate, slope, first-order kinetics ([4]; 1 μM dose): −0.015 ln[nmol]/min/mg protein; Depletion rate, slope, zero-order kinetics ([4]; 1 μM dose): −0.042 nmol/min/mg protein; Depletion rate, slope, first-order kinetics ([4]; 10 μM dose): −0.0034 ln[nmol]/min/mg protein; Depletion rate, slope, zero-order kinetics ([4]; 10 μM dose): −0.097 nmol/min/mg protein
CC(C)(C)c1ccc(OP(=O)(Oc2ccccc2)Oc2ccccc2)cc1 [4tBPDPP, 4-tert-butylphenyl diphenyl phosphate] | 84 ± 8% | 9% | 81 ± 6% | 12% | 59 ± 11% | 56 ± 5% | 43% | 61 ± 5% | 39% | 41% | 92 ± 4% | 100 ± 4% | 81 ± 1% | 8% | 79 ± 11% | 12% | 83 ± 2% | 72 ± 5% | 23% | 23% | Parent converted to DPHP ([5]; 2 μM, 100-min incubation): 41%; Percentage of Initial Parent Administration (Mean ± Std Dev): parent compound [3, 11]: 60 ± 6%; % Depletion [3, 11]: 39%; Percentage of Initial Parent Administration (Mean ± Std Dev): parent compound ([3]; 10 μM, s9 & sulfatase): 73 ± 9%; Percentage of Initial Parent Administration (Mean ± Std Dev): parent compound [3, 12]: 71 ± 6%; % Depletion [3, 12]: 25%; % Depletion ([3]; 10 μM, s9): 12%; Percentage of Initial Parent Administration (Mean ± Std Dev): parent compound ([3]; 10 μM, unprocessed spike): 89 ± 1%; Percent depletion lower than that of TPHP ([3]; human, pH 7.4): 30–45%; Depletion rate, slope, first-order kinetics ([4]; 1 μM dose): −0.013 ln[nmol]/min/mg protein; Depletion rate, slope, zero-order kinetics ([4]; 1 μM dose): −0.031 nmol/min/mg protein; Depletion rate, slope, first-order kinetics ([4]; 10 μM dose): −0.0013 ln[nmol]/min/mg protein; Depletion rate, slope, zero-order kinetics ([4]; 10 μM dose): −0.082 nmol/min/mg protein
O=P(O)(Oc1ccccc1)Oc1ccccc1 [DPHP, diphenyl phosphate] | – | – | – | – | – | – | – | – | – | – | – | – | – | – | – | – | – | – | – | – | Geometric mean urinary concentration [6]: around 10 nM
CC(C)c1ccccc1OP(=O)(Oc1ccccc1C(C)C)Oc1ccccc1C(C)C [T2IPPP] | – | – | – | – | – | – | – | – | – | – | – | – | – | – | – | – | – | – | – | – | DPHP formation following incubation ([5]; ref Strobel et al., 2018): not detected
O=P(Oc1ccccc1)(Oc1ccccc1)Oc1ccccc1 [TPHP, triphenyl phosphate, reference compound] | 94 ± 7% | 6% | 88 ± 2% | 12% | 31 ± 2% | 31 ± 3% | 69% | 23 ± 1% | 77% | 69% | 100 ± 5% | 100 ± 5% | 95 ± 1% | 5% | 94 ± 1% | 6% | 68 ± 1% | 67 ± 1% | 33% | 37% | Mass of parent lower in the +S9 treatment compared to the unprocessed spike ([3]; 1 μM): 69–77%; Mass of parent lower in the +S9 treatment compared to the unprocessed spike ([3]; 10 μM): 32–37%; Percentage of Initial Parent Administration (Mean ± Std Dev): parent compound ([3]; 10 μM, s9 & sulfatase): 63 ± 0.2%; % Depletion ([3]; 10 μM, s9): 32%; Percentage of Initial Parent Administration (Mean ± Std Dev): parent compound ([3]; 10 μM, unprocessed spike): 100 ± 1%; Initial parent depleted in the abiotic control group ([3]; both doses): 5–6%; OH-TPHP glucuronide conjugates, share of the initial TPHP treatment [7]: 65%; Depletion rate ([4]; 1 μM dose): 24 pmol/min/mg; Depletion rate, slope, first-order kinetics ([4]; 1 μM dose): −0.032 ^* ln[nmol]/min/mg protein; Depletion rate, slope, zero-order kinetics ([4]; 1 μM dose): −0.024 nmol/min/mg protein; Depletion rate, slope, first-order kinetics ([4]; 10 μM dose): −0.0030 ln[nmol]/min/mg protein; Depletion rate, slope, zero-order kinetics ([4]; 10 μM dose): −0.032 nmol/min/mg protein; Depletion rate [8]: 22 pmol/min/mg; Percentage of DPHP formation following incubation [9]: 97%; Percentage of DPHP formation following incubation [10]: 22%
C=C(C)c1ccccc1OP(=O)(Oc1ccccc1)Oc1ccccc1 [mono-(o-isopropenylphenyl)-diphenyl phosphate] | – | – | – | – | – | – | – | – | – | – | – | – | – | – | – | – | – | – | – | – | Detection in rabbit bile [1]: detected
hydroxy-o-isopropylphenyl diphenyl phosphate [Hydroxylated 2IPPDPP] | – | – | – | – | – | – | – | – | – | – | – | – | – | – | – | – | – | – | – | – | Detection in human urine samples (number of samples out of 9) [2]: not detected
mono-isopropenylphenyl diphenyl phosphate | – | – | – | – | – | – | – | – | – | – | – | – | – | – | – | – | – | – | – | – | Detection in human urine samples (number of samples out of 9) [2]: 1
